In data set [1] the target is T1, human CRBP1 (Homo sapiens, UniProt P09455).
T1 sequence (P09455 1-135): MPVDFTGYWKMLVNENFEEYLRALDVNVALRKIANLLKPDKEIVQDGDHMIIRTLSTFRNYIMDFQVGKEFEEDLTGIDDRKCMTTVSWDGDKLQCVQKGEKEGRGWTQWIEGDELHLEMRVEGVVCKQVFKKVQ
To be noted: abn-CBD reference value; cited from earlier work.

The conditions of data set [2]: values as provided by PubChem; ref PubChem; cited from earlier work.
Data set [3] concerns albino mice. To be noted: cited from earlier work.
The target of data set [4] is T1, human CRBP1. As to the kind of experiment: fluorescence atROL-replacement assay (Ki determination). The format is binding.

Molecules are shown by their SMILES. Read-outs that look alike come from different tables or passages of the source.

The text below walks through data of paper PMC10591915 (ACS chemical biology, 2023).

As usually defined, the Ki is a dissociation constant, usually derived from enzyme kinetics or from competition with a known ligand. The log P is a log measure of how a compound divides between an organic and an aqueous phase. Consider `C=C(C)[C@@H]1CCC(C)=C[C@H]1c1c(O)cc(O)cc1CCCCC` [abn-CBD, 4-[(1R,6R)-3-Methyl-6-prop-1-en-2-ylcyclohex-2-en-1-yl]-5-pentylbenzene-1,3-diol], for which, in data set [1], the Ki is 67 nM. The log partition coefficient (log P) in data set [2] is recorded as 6.5. In addition, the “protection against light-induced retinal damage” value in data set [3] is given as “protecting against this condition in albino mice”.
For the compound `Cc1ccc(C2(c3noc(CN(C)Cc4cccs4)n3)CCCC2)cc1` [inhibitor 1, N-methyl-N-[[3-[1-(4-methylphenyl)cyclopentyl]-1,2,4-oxadiazol-5-yl]methyl]-1-thiophen-2-ylmethanamine], the affinity in data set [4], expressed as Ki, was 9 ± 4.1 µM. Further, the “log P” value in data set [2] is recorded as 4.9.
Take `CCN(CCn1cccn1)Cc1nc(C2(c3ccc(C)cc3)CCCC2)no1` [inhibitor 2, N-ethyl-N-[[3-[1-(4-methylphenyl)cyclopentyl]-1,2,4-oxadiazol-5-yl]methyl]-2-pyrazol-1-ylethanamine]: the inhibitory constant (Ki) in data set [4] turned out to be 7.1 ± 2.7 µM. The lipophilicity (log P) in data set [2] is reported as 4.0.
With `COCC1CCN(Cc2nc(C(c3ccccc3)c3ccccc3)no2)CC1` [inhibitor 3, 3-benzhydryl-5-[[4-(methoxymethyl)piperidin-1-yl]methyl]-1,2,4-oxadiazole], the “log P” value in data set [2] is 4.0.
Regarding `COc1ccc(S(=O)(=O)N2CCC(O)(CO)CC2)c2c1CCCC2` [inhibitor 4, 4-(hydroxymethyl)-1-[(4-methoxy-5,6,7,8-tetrahydronaphthalen-1-yl)sulfonyl]piperidin-4-ol], the log partition coefficient (log P) in data set [2] was 1.4.
In data set [4], `CC(c1cccs1)N(C)Cc1nc(C(c2ccccc2)c2ccccc2)no1` (stereo not shown) [inhibitor 5, N-[(3-benzhydryl-1,2,4-oxadiazol-5-yl)methyl]-N-methyl-1-thiophen-2-ylethanamine] had a Ki of 10.6 ± 2.5 µM. Moreover, the “log P” value in data set [2] is listed as 5.0.
In turn, `Cc1ccc(C2(c3noc(CN(C)Cc4cnn(C)c4)n3)CCCC2)cc1` [inhibitor 6, N-methyl-N-[[3-[1-(4-methylphenyl)cyclopentyl]-1,2,4-oxadiazol-5-yl]methyl]-1-(1-methylpyrazol-4-yl)methanamine] showed a Ki in data set [4] of 10.7 ± 4.5 µM. The log partition coefficient (log P) in data set [2] is given as 3.5.
